The results in this text go back to patent US20190262300A1, “COMPOSITION FOR PREVENTING OR TREATING PSORIASIS CONTAINING MONOACETYL DIACYLGLYCEROL COMPOUND” (ENZYCHEM LIFESCIENCES CORPORATION, priority 2016, published 2019).

Common to all, as to format: in vivo, Balb/c mice
Experiment [1] deals with psoriasis-induced mouse models (IMQ). The experiment in a line: Size and weight of spleen in IMQ-induced psoriasis mice. To be noted: PLAG 250 mg/kg/day oral day 0 to day 4 with Aldara cream 40 mg/day, vs control group. The source says: (§1) In order to confirm the preventive and therapeutic effects of psoriasis by 1-palmitoyl-2-linoleoyl-3-acetylglycerol (EC-18 or PLAG), imiquimod (hereinafter, referred to as IMQ), which is commonly used to induce skin inflammation i.e., psoriasis, such as infiltration of immune cells, epidermal hyperplasia, etc., was used as a ligand for TLR7 and TLR8 to carry out an experiment using psoriasis-induced mouse models. As an experiment model, 6 to 8-week-old female Balb/c-based mice (KOATECH, Pyeongtaek, Korea) were maintained under a specific pathogen free (SPF) environment and used. PLAG (ENZYCHEM LIFESCIENCES, Korea) was prepared before in vivo or in vitro treatment. Also, statistical analysis was performed using a paired t-test.
(§2) Mice were randomly divided into three groups: control group, psoriasis-induced group, and PLAG group. As the IMQ, Aldara cream (3M Health Care Limited, UK) containing 5% of IMQ was used.
For 5 days from day 0 to day 4, the control group was treated with vaseline (Unilever, UK) and PBS, the psoriasis-induced group was treated with Aldara cream and PBS, and the PLAG group was treated with Aldara cream and PLAG. […]
The size of the spleen removed from the mice of Example 1 was measured using a ruler, and the weight was measured using a scale.

For experiment [2] the test system is unchanged. The experiment in a line: H&E histology of back skin (IMQ-induced chronic inflammatory skin disorder). To be noted: PLAG 250 mg/kg/day oral day 0 to day 4 with Aldara cream 40 mg/day.
Text: as §1, §2
For 5 days from day 0 to day 4, the control group was treated with vaseline (Unilever, UK) and PBS, the psoriasis-induced group was treated with Aldara cream and PBS, and the PLAG group was treated with Aldara cream and PLAG. Vaseline and Aldara cream were applied to the back of mice at a dose of 40 mg/day, and PBS and PLAG were orally administered at a dose of 250 mg/kg/day. On Day 5, which was the 6th day, the mice were sacrificed.
The thickness of the back skin of the mice of Example 1 was stained with the following H&E (Hematoxylin and Eosin) staining method, and histologically observed and evaluated under an optical microscope (Olympus, Tokyo, Japan) 5. The H&E staining method is as follows:
The back skin tissue of the mice was fixed in a 10% buffered formalin solution for 24 hours, embedded in paraffin and cut into 4 μm-thick sections. After removing paraffin and rehydrating the sections, the sections were stained with hematoxylin and eosin.

Experiment [3] has the same test system. The experiment in a line: Keratinization and thickness of back skin of IMQ-induced psoriasis mice. To be noted: vs psoriasis-induced group.
Text: as §1
Mice were randomly divided into three groups: control group, psoriasis-induced group, and PLAG group. As the IMQ, Aldara cream (3M Health Care Limited, UK) containing 5% of IMQ was used. […]
In order to investigate whether PLAG prevents the progression of psoriasis, psoriasis was induced using IMQ cream (Aldara cream) as in Example 1. […] Subsequently, for the measurement of thickness of back skin, the back skin was removed, and the thickness of the removed back skin was measured using a caliper. The thickness of the measured back skin is shown in the graph of FIG. 3(B).

Experiment [4] has as its system neutrophil recruitment in the back skin. The experiment in a line: Immunohistochemical staining of neutrophil recruitment in back skin. Particulars: PLAG 250 mg/kg/day oral day 0 to day 4 with Aldara cream 40 mg/day.
Text: as §1, §2
(§3) For 5 days from day 0 to day 4, the control group was treated with vaseline (Unilever, UK) and PBS, the psoriasis-induced group was treated with Aldara cream and PBS, and the PLAG group was treated with Aldara cream and PLAG. Vaseline and Aldara cream were applied to the back of mice at a dose of 40 mg/day, and PBS and PLAG were orally administered at a dose of 250 mg/kg/day. On Day 5, which was the 6th day, the mice were sacrificed. […]

Another experiment concerns IL-17. Kind of experiment: Immunohistochemical staining of IL-17 expression in IMQ-induced psoriatic skin. To be noted: PLAG 250 mg/kg/day oral day 0 to day 4 with Aldara cream 40 mg/day; back skin.
Text: as §1, §2, §3

SMILES strings stand for the structures.

For `CCCCC/C=C\C/C=C\CCCCCCCC(=O)OC(COC(C)=O)COC(=O)CCCCCCCCCCCCCCC` (racemic) [PLAG, 1-palmitoyl-2-linoleoyl-3-acetyl-rac-glycerol], the size of spleen result in experiment [1] (ruler) is listed as “increased compared to the control group”. Also, the weight of spleen result in experiment [1] (scale) was “maintained the same as the weight of spleen of the control group”. For the same compound, in experiment [2], the “hair follicles (H&E)” value is “present as in the control group” and the “neutrophils between the stratum corneum (H&E)” value was “not found”. Also, the “thicknesses of the stratum corneum and the epidermis (H&E)” value in experiment [2] (vs psoriasis-induced group) is “remarkably reduced”. For the same compound, the “thickness of the back skin (caliper)” value in experiment [3] (PLAG 250 mg/kg/day oral day 0 to day 4 with Aldara cream 40 mg/day, day 5) is recorded as “significantly decreased”. Besides, in experiment [3] (PLAG 250 mg/kg/day oral day 0 to day 4 with Aldara cream (5% IMQ) 40 mg/day, photographed day 5), the “keratosis on the back of the mice” value was “remarkably alleviated”. Moreover, the “level of neutrophil recruitment in back skin (NIMP-R14 immunohistochemistry)” value in experiment [4] is “significantly lower than that in the psoriasis-induced group”. Besides, the “IL-17 expression in the skin blood vessels (immunohistochemistry)” value with IL-17 was “significantly inhibited”.
